# Data from patent US12428406B2 (PMV Pharmaceuticals, Inc., priority 2019, dated 2025).
# Molecular target: T1, p53 Y220C (Homo sapiens, UniProt P04637, Y220C)
# T1 construct: The recombinant protein was a truncation mutant containing only amino acids 94-312 of p53; made in house; host or cells: E. coli
# Test: In vitro DNA binding activity assay (HTRF / TR-FRET): stabilization of p53 Y220C and increase of its DNA binding activity
# Format: biochemical
# Details: recombinant His-tagged p53 Y220C DNA binding domain (aa 94-312), biotin-labeled consensus DNA, incubated at 27° C. or 29° C. for 60 min
# Description: The ability of a compound of the invention to stabilize p53 Y220C and increase the DNA binding activity of p53 Y220C was measured by a homogeneous time-resolved fluorescence (HTRF) assay. Recombinant His-tagged p53 Y220C used in the HTRF assay was expressed in the bacterium E. coli.
# The binding of the recombinant His-tagged p53 Y220C protein and the biotin-labeled consensus DNA was measured using fluorescence resonance energy transfer (FRET). For the FRET assay, the binding between the p53 mutant and the DNA sequence was measured by detecting the fluorescence of the interaction between an anti-His antibody conjugated to allophycocyanin (APC) and streptavidin conjugated to europium to detect the biotin-labeled DNA.
# The test compounds were prepared as 4.5 mM stock solutions in dimethyl sulfoxide (DMSO). The compounds of the disclosure were used to test the stabilization of p53 Y220C and increase in DNA binding activity of p53 Y220C. The stock solutions were then serially diluted 3-fold in DMSO, and 1.2 μL of the diluted solutions was added to each well of a 384-well polypropylene black plate.
# The test and control samples were spun at 1200 rpm for 1 minute and incubated at room temperature for 15 minutes. […] The plates were spun at 1200 rpm for 1 minute and incubated at room temperature for 20 minutes. The assay signals were monitored by reading excitation at 340 nm, and emission fluorescence at 615 nm and 665 nm on a plate reader.
# The percentage of activation of protein DNA binding in the presence of a compound of the invention compared to the absence of the compound was denoted by a SC150 value, which indicated the concentration of the compound required to increase the DNA binding activity by 50%. The SC150 values were calculated using either Prism™ or ActivityBase™.
# T1 sequence (P04637 94-312, change not shown): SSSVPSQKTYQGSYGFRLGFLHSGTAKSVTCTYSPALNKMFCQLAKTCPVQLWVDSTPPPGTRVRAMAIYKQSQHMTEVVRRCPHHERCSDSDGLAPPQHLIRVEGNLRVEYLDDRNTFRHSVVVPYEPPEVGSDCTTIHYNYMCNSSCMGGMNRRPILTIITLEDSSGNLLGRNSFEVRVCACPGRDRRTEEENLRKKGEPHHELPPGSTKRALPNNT
row,SMILES,SC150 (concentration of the compound required to increase the DNA binding activity by 50%)
1,"COc1cc(C(=O)N(C)C)ccc1NCC#Cc1cc2c(N[C@H]3CCN(C)C[C@H]3F)cccc2n1CC(F)(F)F (racemic) [Compound 815A, rac-4-{[3-(4-{[(3R,4S)-3-fluoro-1-methylpiperidin-4-yl]amino}-1-(2,2,2-trifluoroethyl)-1H-indol-2-yl)prop-2-yn-1-yl]amino}-3-methoxy-N,N-dimethylbenzamide]",+ (+ = 0 μM ≤ SC150 < 0.05 μM)
2,"COc1cc(C(=O)NC2CCOCC2)ccc1NCC#Cc1cc2c(N[C@H]3CCN(C)C[C@H]3F)cccc2n1CC(F)(F)F (racemic) [Compound 818A, rac-4-{[3-(4-{[(3R,4S)-3-fluoro-1-methylpiperidin-4-yl]amino}-1-(2,2,2-trifluoroethyl)-1H-indol-2-yl)prop-2-yn-1-yl]amino}-3-methoxy-N-(oxan-4-yl)benzamide]",+ (+ = 0 μM ≤ SC150 < 0.05 μM)
3,"COc1cc(S(C)(=O)=O)ccc1NCC#Cc1cc2c(N(C)[C@H]3CCN(C)C[C@H]3F)cccc2n1CC(F)(F)F (racemic) [Compound 831A, rac-N-[(3R,4S)-3-fluoro-1-methylpiperidin-4-yl]-2-{3-[(4-methanesulfonyl-2-methoxyphenyl)amino]prop-1-yn-1-yl}-N-methyl-1-(2,2,2-trifluoroethyl)-1H-indol-4-amine]",+ (+ = 0 μM ≤ SC150 < 0.05 μM)
4,"COc1cc(S(C)(=O)=O)ccc1NCC#Cc1cc2c(N[C@@H]3CCN(CC(C)O)C[C@@H]3F)cccc2n1CC(F)(F)F (mixture of isomers) [Compound 871A, 1-[(3S,4R)-3-fluoro-4-[(2-{3-[(4-methanesulfonyl-2-methoxyphenyl)amino]prop-1-yn-1-yl}-1-(2,2,2-trifluoroethyl)-1H-indol-4-yl)amino]piperidin-1-yl]propan-2-ol]",+ (+ = 0 μM ≤ SC150 < 0.05 μM)
5,CCCn1c(C#CCNc2ccc(S(C)(=O)=O)cc2OC)cc2c(N[C@H]3CCN(C[C@@H](O)COC)C[C@H]3F)cccc21 (racemic) [Compound 884A],+ (+ = 0 μM ≤ SC150 < 0.05 μM)
6,"COc1cc(S(C)(=O)=O)ccc1NCC#Cc1cc2c(N[C@H]3CCN(CC(=O)NCCN(Cc4ccccn4)Cc4ccccn4)C[C@H]3F)cccc2n1CC(F)(F)F (racemic) [Compound 891A, rac-N-(2-{bis[(pyridin-2-yl)methyl]amino}ethyl)-2-[(3R,4S)-3-fluoro-4-[(2-{3-[(4-methanesulfonyl-2-methoxyphenyl)amino]prop-1-yn-1-yl}-1-(2,2,2-trifluoroethyl)-1H-indol-4-yl)amino]piperidin-1-yl]acetamide]",+ (+ = 0 μM ≤ SC150 < 0.05 μM)
7,"COC(=O)c1ccc(NCC#Cc2cc3c(N[C@@H]4CCN(CC(C)O)C[C@@H]4F)cccc3n2CC(F)(F)F)c(OC)c1 (mixture of isomers) [Compound 900A, methyl 4-{[3-(4-{[(3S,4R)-3-fluoro-1-(2-hydroxypropyl)piperidin-4-yl]amino}-1-(2,2,2-trifluoroethyl)-1H-indol-2-yl)prop-2-yn-1-yl]amino}-3-methoxybenzoate]",+ (+ = 0 μM ≤ SC150 < 0.05 μM)
8,"COc1cc(C(=O)O)ccc1NCC#Cc1cc2c(NC3CCN(C[C@@H](C)O)CC3F)cccc2n1CC(F)(F)F (mixture of isomers) [Compound 911A, 4-{[3-(4-{[(3S,4R)-3-fluoro-1-(2-hydroxypropyl)piperidin-4-yl]amino}-1-(2,2,2-trifluoroethyl)-1H-indol-2-yl)prop-2-yn-1-yl]amino}-3-methoxybenzoic acid]",+ (+ = 0 μM ≤ SC150 < 0.05 μM)
9,"COc1cc(S(C)(=O)=O)ccc1NCC#Cc1cc2c(N[C@H]3CCOC[C@H]3F)cccc2n1CC(F)(F)F (racemic) [Compound 1022A, rac-N-[(3R,4R)-3-fluorooxan-4-yl]-2-{3-[(4-methanesulfonyl-2-methoxyphenyl)amino]prop-1-yn-1-yl}-1-(2,2,2-trifluoroethyl)-1H-indol-4-amine]",+ (+ = 0 μM ≤ SC150 < 0.05 μM)
10,"COc1cc(S(C)(=O)=O)ccc1NCC#Cc1cc2c(N[C@H]3CCC[C@H](N)C3)cccc2n1CC(F)(F)F (relative stereo) [Compound 26A, rel-(1R,3R)-N^1-(2-{3-[(4-methanesulfonyl-2-methoxyphenyl)amino]prop-1-yn-1-yl}-1-(2,2,2-trifluoroethyl)-1H-indol-4-yl)cyclohexane-1,3-diamine]",+ (+ = 0 μM ≤ SC150 < 0.05 μM)
11,"COc1cc(C(=O)O)ccc1NCC#Cc1cc2c(N[C@@H]3CCN(C[C@H](C)O)C[C@@H]3F)cccc2n1CC(F)(F)F (single isomer, unassigned) [Compound 921A]",+ (+ = 0 μM ≤ SC150 < 0.05 μM)

# Continued, values first:
row,SC150 (concentration of the compound required to increase the DNA binding activity by 50%),SMILES
1,+ (+ = 0 μM ≤ SC150 < 0.05 μM),COCC(O)CNC(=O)c1ccc(NCC#Cc2cc3c(N[C@H]4CCN(C)C[C@H]4F)cccc3n2CC(F)(F)F)c(OC)c1 (mixture of isomers) [Compound 816A]
2,+ (+ = 0 μM ≤ SC150 < 0.05 μM),"COc1cc(C(=O)NC(C)C)ccc1NCC#Cc1cc2c(N[C@H]3CCN(C)C[C@H]3F)cccc2n1CC(F)(F)F (racemic) [Compound 817A, rac-4-{[3-(4-{[(3R,4S)-3-fluoro-1-methylpiperidin-4-yl]amino}-1-(2,2,2-trifluoroethyl)-1H-indol-2-yl)prop-2-yn-1-yl]amino}-3-methoxy-N-(propan-2-yl)benzamide]"
3,+ (+ = 0 μM ≤ SC150 < 0.05 μM),"CCN1CC[C@H](Nc2cccc3c2cc(C#CCNc2ccc(S(C)(=O)=O)cc2OC)n3CC(F)(F)F)[C@H](F)C1 (racemic) [Compound 820A, rac-N-[(3R,4S)-1-ethyl-3-fluoropiperidin-4-yl]-2-{3-[(4-methanesulfonyl-2-methoxyphenyl)amino]prop-1-yn-1-yl}-1-(2,2,2-trifluoroethyl)-1H-indol-4-amine]"
4,++ (++ = 0.05 μM ≤ SC150 < 0.1 μM),"COc1cc(C(=O)O)ccc1NCC#Cc1cc2c(N[C@H]3CCN(C)C[C@@H]3F)cccc2n1CC(F)(F)F (racemic) [Compound 833A, rac-4-{[3-(4-{[(3R,4R)-3-fluoro-1-methylpiperidin-4-yl]amino}-1-(2,2,2-trifluoroethyl)-1H-indol-2-yl)prop-2-yn-1-yl]amino}-3-methoxybenzoic acid]"
5,+ (+ = 0 μM ≤ SC150 < 0.05 μM),"COc1cc(S(C)(=O)=O)ccc1NCC#Cc1cc2c(N[C@H]3CCN(C)C[C@H]3F)cc(F)cc2n1CC(F)(F)F (racemic) [Compound 836A, rac-6-fluoro-N-[(3R,4S)-3-fluoro-1-methylpiperidin-4-yl]-2-{3-[(4-methanesulfonyl-2-methoxyphenyl)amino]prop-1-yn-1-yl}-1-(2,2,2-trifluoroethyl)-1H-indol-4-amine]"
6,+ (+ = 0 μM ≤ SC150 < 0.05 μM),"CCN1CC[C@H](Nc2cccc3c2cc(C#CCNc2ccc(C(=O)O)cc2OC)n3CC(F)(F)F)[C@H](F)C1 (racemic) [Compound 958A, 4-((3-(4-(((3R,4S)-1-ethyl-3-fluoropiperidin-4-yl)amino)-1-(2,2,2-trifluoroethyl)-1H-indol-2-yl)prop-2-yn-1-yl)amino)-3-methoxybenzoic acid]"
7,+ (+ = 0 μM ≤ SC150 < 0.05 μM),"COc1cc(S(C)(=O)=O)ccc1NCC#Cc1cc2c(N[C@@H]3CN(C)CC[C@@H]3F)cccc2n1CC(F)(F)F (racemic) [Compound 1067A, rac-N-[(3R,4S)-4-fluoro-1-methylpiperidin-3-yl]-2-{3-[(4-methanesulfonyl-2-methoxyphenyl)amino]prop-1-yn-1-yl}-1-(2,2,2-trifluoroethyl)-1H-indol-4-amine]"
8,+ (+ = 0 μM ≤ SC150 < 0.05 μM),"COc1cc(S(C)(=O)=O)ccc1NCC#Cc1cc2c(N[C@H]3CCC[C@@H](O)C3)cccc2n1CC(F)(F)F (relative stereo) [Compound 30A, rel-(1R,3S)-3-[(2-{3-[(4-methanesulfonyl-2-methoxyphenyl)amino]prop-1-yn-1-yl}-1-(2,2,2-trifluoroethyl)-1H-indol-4-yl)amino] cyclohexan-1-ol]"
9,+ (+ = 0 μM ≤ SC150 < 0.05 μM),"COc1cc(C(=O)NCC(CO)OC)ccc1NCC#Cc1cc2c(N[C@@H]3CCN(C)C[C@@H]3F)cccc2n1CC(F)(F)F (single isomer, unassigned) [Compound 966A]"
